The record followed here is PMC6562865, “Vitis vinifera L. Leaf Extract Inhibits In Vitro Mediators of Inflammation and Oxidative Stress Involved in Inflammatory-Based Skin Diseases” (Antioxidants, 2019).

Type in all cases: cell-based, human
In assay [1] the test system is NF-κB (p65). Kind of assay: NF-κB (p65) nuclear translocation in HaCaT cells. The conditions noted are these: 20 μM. The method, then:
For the evaluation of the NF-κB (p65) translocation, HaCaT were plated at the concentration of 3 × 10^6 cells/mL in 100-mm plates with fresh complete medium. After 48 h, cells were treated for 1 h with the inflammatory mediators (TNF-α at 10 ng/mL or LPS at 5 μg/mL) and the extract (10–50 μg/mL) under study, using FBS-free medium. Nuclear extracts were prepared using the Nuclear Extraction Kit from the Cayman Chemical Company (Ann Arbor, MI, USA) as previously described.
Data were expressed considering 100% of the absorbance related to the cytokine-induced NF-κB nuclear translocation. EGCG (20 μM) was used as the reference inhibitor of the NF-κB nuclear translocation. The results are the mean ± SD of three experiments in triplicate.
(§1) HaCaT cells were grown in 24-well plates for 48 h (30,000 cells per well), washed with phosphate-buffered saline (PBS), and exposed to UVB (40 mJ/cm^2) light source (Triwood 31/36, W36, V230, Helios Italquartz, Milano, Italy) in a glass bath. Radiation time (about 50 s) was adjusted for each experimental day, measuring energy emission by the LP 471 UVB probe (Delta OHM, Padova, Italy). After radiation, serum free fresh culture medium was immediately added. For the evaluation of IL-8 release, cells were treated for additional 9 h, a time point selected in preliminary time-course experiments. For NF-κB (p65) translocation, HaCaT cells were treated for 1 h after UVB radiation. EGCG (20 μM) was used as reference inhibitor.

Assay [2] relates to MMP-9. Kind of assay: MMP-9 release in HaCaT cells (ELISA). The conditions noted are these: 20 μM. As for the experimental part:
MMP-9 secretion was performed on HaCaT cells treated with TNF-α (10 ng/mL) and (LPS 5 μg/mL) for 3, 6, 24, and 48 h. Cells were grown in 24-well plates (30,000 cell/well) for 48 h, before the treatment. Human MMP-9 ELISA Kit from RayBio® (Norcross GA, USA) was used to quantify MMP-9 secretion according to manufacturer’s instructions. 300 μL of samples in duplicate were transferred into a 96-well plate coated with anti-human MMP-9 and incubated overnight at 4 °C with gentle shaking. MMP-9 secreted was detected by the use of biotinylated and streptavidin–horseradish peroxidase (HRP) conjugate antibodies as previously described. The quantitative measurement of MMP-9 was done using an optimized standard curve supplied with the ELISA kit (8.23–6000 pg/mL). The MMP-9 secretion reached the maximum at 24 h for both TNF-α and LPS. VVWE was tested at 10–50 μg/mL in the presence of stimuli and between 2.5–200 μg/mL without the pro-inflammatory mediators.
In general terms: In an ELISA, binding on a coated surface is turned into a signal by an enzyme label.

In assay [3] the test system is VEGF. Kind of assay: VEGF release in HaCaT cells (ELISA). The conditions noted are these: 20 μM. The method, then: Cells were grown in 24-well plates for 48 h (30,000 cells per well) before challenge with the pro-inflammatory mediator. VEGF was quantified by the Human VEGF ELISA Development Kit. Briefly, Corning 96-well EIA/RIA plates (Sigma-Aldrich, Milan, Italy) were coated with the antibody provided in the ELISA Kit (PeproTech Inc., London, UK) overnight at 4 °C. After blocking the reaction, 300 μL of samples were transferred into wells at room temperature for 2 h. The amount of VEGF in the samples was detected by spectroscopy (signal read: 450 nm, 0.1 s) as described above. The quantitative measurement of VEGF was done using an optimized standard curve supplied with the ELISA set (100–2000 pg/mL). […] EGCG (20 μM) was used as the reference inhibitor of VEGF secretion.

Assay [4] concerns IL-8. In words: IL-8 release in HaCaT cells (ELISA). The conditions noted are these: 20 μM. The method, then:
Cells were grown in 24-well plates for 48 h (30,000 cells per well) before the cytokine treatment. IL-8 was quantified using a Human Interleukin-8 ELISA Development Kit as previously described. Preliminary time-course experiments were performed to set the best conditions for further experiments. HaCaT were treated with TNF-α (10 ng/mL), LPS (5 μg/mL), or H2O2 (100 μM), for 3, 6, 24, and 30 h. The IL-8 secretion induced by TNF-α or LPS was tested after 6 h of treatment, while the 24-h time point was chosen for H2O2. Epigallocatechin-3-gallate (EGCG) (20 μM) was used as the reference inhibitor of IL-8 secretion.
as §1

Assay [5] deals with NF-κB. In words: NF-κB-driven transcription, NF-κB-LUC transient transfection luciferase assay in HaCaT cells. The conditions noted are these: transfected HaCaT, 6 h, 20 μM. The method, then:
(§2) HaCaT cells were plated in 24-well plates and transiently transfected with the plasmid NF-κB-LUC or native IL-8-LUC, both at 250 ng per well, using Lipofectamine® 2000, according to previous studies. Sixteen hours later, the cells were treated for 6 h with increasing concentrations of VVWE in the presence of the pro-inflammatory mediators (TNF-α at 10 ng/mL or LPS at 5 μg/mL). After six hours, cells were harvested and the luciferase assay was performed using the BriteliteTM Plus reagent (PerkinElmer Inc., Massachusetts, USA) according to the manufacturer’s instructions. Data were expressed considering 100% of the luciferase activity related to the cytokine-induced promoter activity.

In assay [6] the test system is IL-8 promoter. Kind of assay: IL-8 promoter activity, IL-8-LUC transient transfection luciferase assay in HaCaT cells. The conditions noted are these: transfected HaCaT, 6 h, 20 μM. As for the experimental part: as §2

In the case of Epigallocatechin-3-gallate [EGCG], the “inhibition of LPS-induced NF-κB nuclear translocation” value in assay [1] (LPS 5 μg/mL, 1 h) came out at 53.2%. Moreover, in assay [1] (TNF-α 10 ng/mL, 1 h), the “inhibition of TNF-α-induced NF-κB nuclear translocation” value worked out at 62.4%. Moreover, in assay [1] (UVB 40 mJ/cm^2, 1 h), the “inhibition of UVB-induced NF-κB nuclear translocation” value is listed as 39.1%. Also, the “inhibition of LPS-induced MMP-9 secretion” value in assay [2] (LPS 5 μg/mL, 30 h) is recorded as “no inhibition”. For the same substance, the “inhibition of TNF-α-induced MMP-9 secretion” value in assay [2] (TNF-α 10 ng/mL, 24 h) is reported as 38.0%. Also, in assay [3] (H2O2 100 μM, 24 h), the “inhibition of H2O2-induced VEGF secretion” value is reported as 100%. Also, in assay [3] (LPS 5 μg/mL, 30 h), the “inhibition of LPS-induced VEGF secretion” value stood at 100%. The “inhibition of TNF-α-induced VEGF secretion” value in assay [3] (TNF-α 10 ng/mL, 24 h) is given as 78.7%. The “inhibition of LPS-induced IL-8 secretion” value in assay [4] (LPS 5 μg/mL, 6 h) is 84.9%. In assay [4] (TNF-α 10 ng/mL, 6 h), the “inhibition of TNF-α-induced IL-8 secretion” value came out at 62.1%. Further, the “inhibition of UVB-induced IL-8 secretion” value in assay [4] (UVB 40 mJ/cm^2, 9 h) is 61.7%. Moreover, the “inhibition of LPS-induced NF-κB-driven transcription” value in assay [5] (LPS 5 μg/mL) is 29.9%. Also, the “inhibition of TNF-α-induced NF-κB-driven transcription” value in assay [5] (TNF-α 10 ng/mL) was found to be 59.9%. The “inhibition of LPS-induced IL-8 promoter activity” value in assay [6] (LPS 5 μg/mL) was found to be 33.3%. In addition, the “inhibition of TNF-α-induced IL-8 promoter activity” value in assay [6] (TNF-α 10 ng/mL) is 35.9%.
